According to patent EP4778516A1, “CALCIFICATION ENHANCER FOR OSTEOBLAST MC3T3-E1 CELL” (Watanabe Oyster Laboratory Co., Ltd., priority 2023, dated 2025):

Columns and labels:
MC3T3-E1 cells [1] = assay: Effects of conditioned medium of LPS-stimulated RAW264.7 cells on MC3T3-E1 cells; format: cell-based, mouse; conditions: Bay 11-7082 1 or 10 nM, conditioned medium 0.5 ml per well
Procedure: A conditioned medium was obtained by culturing RAW264.7 cells.
RAW264.7 cells (1×10^5 cells/ml per well in a 24-well plate) were cultured for 3 days after reaching subconfluence in DMEM containing 10% FBS and 1% P/S in the presence or absence of LPS (concentration in the medium: 100 ng/ml). After the cells were cultured, the medium (conditioned medium) was collected.
To evaluate the effects of the conditioned medium on proliferation of MC3T3-E1 cells, MC3T3-E1 cells were cultured for 3 days in a-MEM containing 10% FBS and 1% P/S. The cells were then cultured for 3 days using either the conditioned medium (1 ml, control) cultured without LPS or the conditioned medium (0.25 or 0.50 ml per well, adjusted to 1 ml with normal medium) cultured with LPS in the presence or absence of DHMBA (1 or 10 mM).
Further, to examine the effects on cell death of MC3T3-E1 cells, the cells (1×10^5 cells/ml per well) were cultured for 3 days in a-MEM containing 10% FBS and 1% P/S. After reaching subconfluence, the medium was replaced. The cells were then further cultured for 48 hours in either the normal medium, the conditioned medium (1 ml) cultured without LPS, or the conditioned medium (0.25 or 0.50 ml per well, adjusted to 1 ml with normal medium) with either a reagent vehicle (1% ethanol as final concentration) or DHMBA (1 or 10 mM). After culture, the cells were detached from each culture well, and cell numbers were counted in the same manner as described above.
Further, the effects of Bay 11-7082, which is an NF-kB signaling inhibitor, on proliferation or cell death of MC3T3-E1 cells were investigated. First, to examine the effects of Bay 11-7082 on proliferation of MC3T3-E1 cells, the cells (1×10^5 cells/1 ml per well in a 24-well plate) were cultured for 3 days until reaching subconfluence in the presence of 10% FBS, 1% P/S, and either a reagent vehicle (1% ethanol as final concentration) or Bay 11-7082 (1, 10, 50, 100, or 1000 nM). Next, MC3T3-E1 cells were cultured for 3 days in the presence of the conditioned medium (0.5 ml per well, adjusted to a total of 1 ml with normal medium) with or without Bay 11-7082 (1 or 10 nM) in the presence or absence of DHMBA (10 mM).
In another experiment, to evaluate the effects of Bay 11-7082 on cell death of MC3T3-E1, the cells (1×10^5 cells/1 ml per well in a 24-well plate) were cultured in a-MEM containing 10% FBS and 1% P/S. After culturing for 3 days until reaching subconfluence, the medium was replaced with a-MEM (1 ml) containing either the normal medium or the conditioned medium prepared by adding the normal medium to 0.5 ml per well of the conditioned medium, adjusted to a total volume of 1 ml. The cells were then further cultured for 48 hours in the presence of Bay 11-7082 (1 or 10 nM), or Bay 11-7082 (10 nM) in combination with DHMBA (10 mM). After culture, the cells were detached from each culture well, and cell numbers were counted as described above.

MC3T3-E1 cells [2] = assay: Cell proliferation assay (cell counting); format: cell-based, mouse; conditions: Bay 11-7082 1, 10, or 50 nM, 3 days; Fig. 7B
Procedure: To examine progression of cell proliferation, MC3T3-E1 cells (1×10^5/ml medium per well) were cultured using a 24-well plate in a-MEM supplemented with 10% FBS and 1% P/S at 37°C in a water-saturated atmosphere containing 5% CO2 and 95% air. The cells were cultured for 1, 2, 3, 4, or 5 days in the presence of a vehicle (1% ethanol as final concentration) or DHMBA (10 mM). In another experiment, to evaluate the effects of increased concentrations of DHMBA on MC3T3-E1 cells, the cells (1×10^5/ml per well) were cultured using a 24-well plate in DMEM (containing 10% FBS and 1% P/S). The cells were cultured for 3 days in the presence of either a reagent vehicle (1% ethanol as final concentration) or DHMBA (0.1, 1, 10, 100, or 1000 mM).
To evaluate the effects of DHMBA on cell death of osteoblasts MC3T3-E1, the cells (1×10^5/ml medium per well in a 24-well plate) were cultured in a-MEM containing 10% FBS and 1% P/S. After culturing for 3 days until reaching subconfluence, either a reagent vehicle (1% ethanol as final concentration) or DHMBA (0.1, 1, 10, 100, or 1000 mM) was added, and the cells were further cultured for 48 hours. After culture, to count the number of cells attached to each well, a […] containing 0.05% trypsin and EDTA (0.1 ml per well) was added, and then the culture plates were incubated at 37°C for 2 minutes. Subsequently, a-MEM (0.9 ml) containing 10% FBS and 1% P/S was added, and the cells were detached and mixed by pipetting. The cell suspension (0.1 ml) was mixed with 0.1 ml of 0.5% trypan blue staining solution. By this staining, […]. Viable cells were counted under a microscope (Olympus MTV-3) using a hemocytometer (Sigma-Aldrich, St. Louis, MO) and a cell counter (H-102P, Line Seiki Co., Ltd., Tokyo, Japan), and the average of two counts was calculated. Cell numbers were expressed as the number per well.

## Cc1ccc(S(=O)(=O)/C=C/C#N)cc1 [Bay 11-7082, reference compound]
MC3T3-E1 cells [1]; 48 hours, Fig. 7D
  effects of the conditioned medium on enhancement of cell death of MC3T3-E1 cells: suppressed
MC3T3-E1 cells [1]; 3 days, Fig. 7C
  effects of the conditioned medium on inhibition of proliferation of MC3T3-E1 cells: suppressed
MC3T3-E1 cells [2]
  number of MC3T3-E1 cells: did not cause a significant reduction
